Experimental findings from patent US20260325533A1, “CDK INHIBITOR COMPOUNDS” (ALEKSIA THERAPEUTICS, INC., priority 2023, published 2026) are described below.

Read-outs that look alike come from different tables or passages of the source. Where only a bound is given, the exact number is not on record here.

What all share (type): biochemical
One assay deals with CDK2/CCNE1 (Homo sapiens, UniProt P24941). Briefly: CDK2 homogeneous time-resolved fluorescence (HTRF) kinase assay. To be noted: CDK2/CCNE. In short, it runs like this: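 3 nM CDK2/CCNE1 was preincubated with compound for 20 min at 23 °C in HEPES buffer (pH not stated), then reacted 60 min with 1 mM ATP and 50 nM ULight-4E-BP1 (Thr37/46) peptide. After EDTA stop, Eu-anti-phospho-4E-BP1 antibody (2 nM) was added for 60 min and TR-FRET read at 665 nm.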

The next assay addresses CDK1/CCNB1 (Homo sapiens, UniProt P06493). Briefly: CDK1 homogeneous time-resolved fluorescence (HTRF) kinase assay. To be noted: CDK1/CCNB. In short, it runs like this: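 Compounds, titrated 11 points in half-log steps typically from 10 μM, were incubated with enzyme for 20 min before ATP (1 mM) and ULight-labelled eIF4E-binding protein 1 peptide (50 nM) started a 60-min reaction at 23 °C. Phosphopeptide was detected by europium-antibody TR-FRET and IC50 values were derived.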
On the technique in general: Time-resolved FRET reads energy transfer from a long-lived donor to a nearby acceptor.

Another assay concerns the target CDK4/CCND3 (Homo sapiens, UniProt P11802). In words: CDK4 homogeneous time-resolved fluorescence (HTRF) kinase assay. The note with it: CDK4/CCND. The gist of the method:
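Inhibition of CDK4/CCND3 (1.5 nM) was measured at high ATP (1 mM) using 50 nM ULight-labelled 4E-BP1 Thr37/46 peptide; detection used 2 nM europium anti-phospho antibody after EDTA quench. IC50 values came from 11-point half-log titrations typically starting at 10 μM.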

A further assay addresses CDK6/CCND1 (Homo sapiens, UniProt Q00534). In words: CDK6 homogeneous time-resolved fluorescence (HTRF) kinase assay. To be noted: CDK6/CCND. The gist of the method: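 1 nM enzyme, 1 mM ATP, 50 nM ULight-4E-BP1 (Thr37/46) peptide, 1% DMSO; 20 min compound preincubation, 60 min reaction, 23 °C. EDTA stop, 2 nM Eu-anti-phospho-4E-BP1 antibody 60 min. TR-FRET 665 nm (or 665/615 ratio); IC50 from 11-point half-log titration, top 10 μM.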

[1] abbreviates: <25 nM, read-out: CDK2/CCNE IC50 <25 nM.
Where [2] appears, read: >250 nM marked x, read-out: CDK1/CCNB IC50 >250 nM.
Where [3] appears, read: 25-250 nM marked x, read-out: CDK4/CCND IC50 25-250 nM.
Where [4] appears, read: 25-250 nM marked x, read-out: CDK6/CCND IC50 25-250 nM.
The mark [5] stands for this setting: <25 nM, read-out: CDK6/CCND IC50 <25 nM.
[6] abbreviates: 25-250 nM marked x, read-out: CDK1/CCNB IC50 25-250 nM.
Setting [7] is: <25 nM, read-out: CDK4/CCND IC50 <25 nM.
The mark [8] stands for this setting: 25-250 nM marked x, read-out: CDK2/CCNE IC50 25-250 nM.
Setting [9] is: >250 nM marked x, read-out: CDK4/CCND IC50 >250 nM.
Where [10] appears, read: >250 nM marked x, read-out: CDK6/CCND IC50 >250 nM.

CDK4/CCND3, sequence (P11802 whole entry): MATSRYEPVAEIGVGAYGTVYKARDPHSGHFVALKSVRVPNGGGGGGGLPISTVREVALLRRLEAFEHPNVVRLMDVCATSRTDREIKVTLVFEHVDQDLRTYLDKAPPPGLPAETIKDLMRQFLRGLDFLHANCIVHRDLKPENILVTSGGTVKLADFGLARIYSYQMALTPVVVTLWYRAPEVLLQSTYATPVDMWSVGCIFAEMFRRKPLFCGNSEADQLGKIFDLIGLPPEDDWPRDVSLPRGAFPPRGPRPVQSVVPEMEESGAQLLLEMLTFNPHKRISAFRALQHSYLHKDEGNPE
CDK4/CCND3, sequence (P30281 whole entry partner): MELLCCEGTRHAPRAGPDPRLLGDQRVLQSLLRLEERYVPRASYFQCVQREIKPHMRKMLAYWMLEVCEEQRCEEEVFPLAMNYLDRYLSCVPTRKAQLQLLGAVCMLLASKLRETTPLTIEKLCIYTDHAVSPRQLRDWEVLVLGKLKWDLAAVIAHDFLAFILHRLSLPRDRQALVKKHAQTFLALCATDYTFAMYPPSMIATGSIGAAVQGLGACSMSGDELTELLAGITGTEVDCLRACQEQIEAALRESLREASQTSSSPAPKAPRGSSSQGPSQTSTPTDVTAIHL
CDK6/CCND1, sequence (Q00534 whole entry): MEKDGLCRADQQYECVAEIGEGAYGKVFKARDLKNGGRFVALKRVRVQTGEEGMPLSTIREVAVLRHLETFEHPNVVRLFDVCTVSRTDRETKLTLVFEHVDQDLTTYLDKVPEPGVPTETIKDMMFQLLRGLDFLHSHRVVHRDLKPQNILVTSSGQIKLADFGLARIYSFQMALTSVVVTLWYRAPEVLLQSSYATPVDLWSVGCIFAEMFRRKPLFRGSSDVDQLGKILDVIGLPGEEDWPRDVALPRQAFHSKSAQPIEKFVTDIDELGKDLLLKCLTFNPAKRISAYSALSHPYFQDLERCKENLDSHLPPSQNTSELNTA
CDK6/CCND1, sequence (P24385 whole entry partner): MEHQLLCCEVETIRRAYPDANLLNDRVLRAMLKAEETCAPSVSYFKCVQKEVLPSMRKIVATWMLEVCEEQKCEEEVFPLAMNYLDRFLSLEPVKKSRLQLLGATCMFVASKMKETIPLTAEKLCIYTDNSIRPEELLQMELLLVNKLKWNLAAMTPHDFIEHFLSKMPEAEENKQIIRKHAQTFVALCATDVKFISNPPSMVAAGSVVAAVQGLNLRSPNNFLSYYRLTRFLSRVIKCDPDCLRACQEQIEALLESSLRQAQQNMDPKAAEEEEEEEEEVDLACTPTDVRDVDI
CDK1/CCNB1, sequence (P06493 whole entry): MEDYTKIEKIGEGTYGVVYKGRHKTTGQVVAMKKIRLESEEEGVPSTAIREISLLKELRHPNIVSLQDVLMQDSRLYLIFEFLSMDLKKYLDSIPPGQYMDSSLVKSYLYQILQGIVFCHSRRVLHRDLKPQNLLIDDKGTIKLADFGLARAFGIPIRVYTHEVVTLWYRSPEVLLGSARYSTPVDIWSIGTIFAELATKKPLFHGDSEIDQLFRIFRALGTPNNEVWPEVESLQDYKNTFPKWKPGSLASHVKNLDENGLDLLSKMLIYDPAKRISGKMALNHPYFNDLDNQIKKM
CDK1/CCNB1, sequence (P14635 whole entry partner): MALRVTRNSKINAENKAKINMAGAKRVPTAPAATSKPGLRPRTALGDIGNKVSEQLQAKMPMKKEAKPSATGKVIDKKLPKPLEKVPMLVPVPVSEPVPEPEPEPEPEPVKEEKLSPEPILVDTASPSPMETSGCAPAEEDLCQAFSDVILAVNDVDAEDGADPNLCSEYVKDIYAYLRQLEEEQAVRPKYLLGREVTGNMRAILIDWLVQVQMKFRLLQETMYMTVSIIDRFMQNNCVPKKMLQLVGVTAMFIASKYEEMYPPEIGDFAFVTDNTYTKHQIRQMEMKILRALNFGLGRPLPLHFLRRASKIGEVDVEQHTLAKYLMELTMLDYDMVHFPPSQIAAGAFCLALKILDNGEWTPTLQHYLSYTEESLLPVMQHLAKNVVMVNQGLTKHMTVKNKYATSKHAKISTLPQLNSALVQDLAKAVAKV

For the molecule `CS(=O)(=O)N1CCC(Nc2cc3c(-c4ccc5[nH]ncc5c4)nccc3cn2)CC1` [Ex 77, 5-(1H-indazol-5-yl)-N-(1-(methylsulfonyl)piperidin-4-yl)-2,6-naphthyridin-3-amine], the IC50 on CDK2/CCNE1 (setting [1]) is below 25 nM; on CDK1/CCNB1 (setting [2]) it was above 250 nM; on CDK4/CCND3 (setting [3]) it was 25 to 250 nM; on CDK6/CCND1 (setting [4]) it was 25 to 250 nM.

For the molecule `CS(=O)(=O)N1CCC(Nc2cc3c(-c4ccc(CO)cc4)nccc3cn2)CC1` [Ex 78, (4-(7-((1-(methylsulfonyl)piperidin-4-yl)amino)-2,6-naphthyridin-1-yl)phenyl)methanol], the IC50 at CDK2/CCNE1 (setting [1]) was below 25 nM; on CDK1/CCNB1 (setting [2]), above 250 nM; on CDK4/CCND3 (setting [3]), 25 to 250 nM; on CDK6/CCND1 (setting [5]), below 25 nM.

Regarding `CS(=O)(=O)N1CCC(Nc2cc3c(-c4ccccc4OC(F)(F)F)nccc3cn2)CC1` [Ex 81, N-(1-(methylsulfonyl)piperidin-4-yl)-5-(2-(trifluoromethoxy)phenyl)-2,6-naphthyridin-3-amine], the IC50 on CDK2/CCNE1 (setting [1]) was below 25 nM; on CDK1/CCNB1 (setting [2]), above 250 nM; on CDK4/CCND3 (setting [3]), 25 to 250 nM; at CDK6/CCND1 (setting [4]), 25 to 250 nM.

`CS(=O)(=O)N1CCC(Nc2cc3c(-c4cncs4)nccc3cn2)CC1` [Ex 82, N-(1-(methylsulfonyl)piperidin-4-yl)-5-(thiazol-5-yl)-2,6-naphthyridin-3-amine]: the IC50 is below 25 nM at CDK2/CCNE1 (setting [1]), above 250 nM at CDK1/CCNB1 (setting [2]), 25 to 250 nM at CDK4/CCND3 (setting [3]) and 25 to 250 nM at CDK6/CCND1 (setting [4]).

For the molecule `CS(=O)(=O)N1CCC(Nc2cc3c(C4=CCOCC4)nccc3cn2)CC1` [Ex 87, 5-(3,6-dihydro-2H-pyran-4-yl)-N-(1-(methylsulfonyl)piperidin-4-yl)-2,6-naphthyridin-3-amine], the IC50 is below 25 nM on CDK2/CCNE1 (setting [1]), above 250 nM on CDK1/CCNB1 (setting [2]), 25 to 250 nM on CDK4/CCND3 (setting [3]) and 25 to 250 nM at CDK6/CCND1 (setting [4]).

With `CS(=O)(=O)N1CCC(Nc2cc3c(-c4ccc5cc[nH]c5c4)nccc3cn2)CC1` [Ex 89, 5-(1H-indol-6-yl)-N-(1-(methylsulfonyl)piperidin-4-yl)-2,6-naphthyridin-3-amine], the IC50 is below 25 nM at CDK2/CCNE1 (setting [1]), 25 to 250 nM at CDK1/CCNB1 (setting [6]), below 25 nM on CDK4/CCND3 (setting [7]) and below 25 nM on CDK6/CCND1 (setting [5]).

In the case of `CS(=O)(=O)N1CCC(Nc2cc3c(-c4cc[nH]c4)nccc3cn2)CC1` [Ex 90, N-(1-(methylsulfonyl)piperidin-4-yl)-5-(1H-pyrrol-3-yl)-2,6-naphthyridin-3-amine], the IC50 was below 25 nM on CDK2/CCNE1 (setting [1]), above 250 nM at CDK1/CCNB1 (setting [2]), 25 to 250 nM on CDK4/CCND3 (setting [3]) and 25 to 250 nM on CDK6/CCND1 (setting [4]).

Take `CS(=O)(=O)N1CCC(Nc2cc3c(-c4ccc5c(c4)CC(=O)N5)nccc3cn2)CC1` [Ex 91, 5-(7-((1-(methylsulfonyl)piperidin-4-yl)amino)-2,6-naphthyridin-1-yl)indolin-2-one]: the IC50 was below 25 nM at CDK2/CCNE1 (setting [1]), above 250 nM on CDK1/CCNB1 (setting [2]), 25 to 250 nM on CDK4/CCND3 (setting [3]) and 25 to 250 nM on CDK6/CCND1 (setting [4]).

As to `CN(CCO)C(=O)c1nccc2cnc(NC3CCN(S(C)(=O)=O)CC3)cc12` [Ex 96, N-(2-hydroxyethyl)-N-methyl-7-((1-(methylsulfonyl)piperidin-4-yl)amino)-2,6-naphthyridine-1-carboxamide], the IC50 at CDK2/CCNE1 (setting [8]), at CDK1/CCNB1 (setting [6]), at CDK4/CCND3 (setting [3]) and on CDK6/CCND1 (setting [4]) was 25 to 250 nM in each case.

On to `Oc1ccc(Nc2cc3c(C4=CCCCC4)nccc3cn2)cc1` [Ex 99, 4-((5-(cyclohex-1-en-1-yl)-2,6-naphthyridin-3-yl)amino)phenol], for which the IC50 was below 25 nM at CDK2/CCNE1 (setting [1]), 25 to 250 nM at CDK1/CCNB1 (setting [6]), 25 to 250 nM at CDK4/CCND3 (setting [3]) and below 25 nM at CDK6/CCND1 (setting [5]).

Take `Oc1cccc(Nc2cc3c(C4=CCCCC4)nccc3cn2)c1` [Ex 100, 3-((5-(cyclohex-1-en-1-yl)-2,6-naphthyridin-3-yl)amino)phenol]: the IC50 on CDK2/CCNE1 (setting [1]) is below 25 nM; at CDK1/CCNB1 (setting [2]), above 250 nM; at CDK4/CCND3 (setting [3]), 25 to 250 nM; on CDK6/CCND1 (setting [5]) it was below 25 nM.

On to `CS(=O)(=O)N1CCC(Nc2cc3c(C4=CCCCC4)nccc3cn2)CC1` [Ex 102, 5-(cyclohex-1-en-1-yl)-N-(1-(methylsulfonyl)piperidin-4-yl)-2,6-naphthyridin-3-amine], for which the IC50 at CDK2/CCNE1 (setting [1]) was below 25 nM; at CDK1/CCNB1 (setting [6]), 25 to 250 nM; at CDK4/CCND3 (setting [7]), below 25 nM; at CDK6/CCND1 (setting [5]), below 25 nM.

Take `C=CS(=O)(=O)N1CCC(Nc2cc3c(N4CCC(C5CCN(C)CC5)CC4)nccc3cn2)CC1` [Ex 103, 5-(1'-methyl-[4,4'-bipiperidin]-1-yl)-N-(1-(vinylsulfonyl)piperidin-4-yl)-2,6-naphthyridin-3-amine]: the IC50 at CDK2/CCNE1 (setting [8]) was 25 to 250 nM; at CDK1/CCNB1 (setting [2]), above 250 nM; at CDK4/CCND3 (setting [3]), 25 to 250 nM; at CDK6/CCND1 (setting [4]) it was 25 to 250 nM.

With `C=CS(=O)(=O)N1CCC(Nc2cc3c(N4CCC(C#N)CC4)nccc3cn2)CC1` [Ex 106, 1-(7-((1-(vinylsulfonyl)piperidin-4-yl)amino)-2,6-naphthyridin-1-yl)piperidine-4-carbonitrile], the IC50 on CDK2/CCNE1 (setting [1]) is below 25 nM; on CDK1/CCNB1 (setting [6]) it was 25 to 250 nM; on CDK4/CCND3 (setting [3]) it was 25 to 250 nM; on CDK6/CCND1 (setting [4]) it was 25 to 250 nM.

As to `C=CS(=O)(=O)N1CCC(Nc2cc3c(-c4ccncc4C)nccc3cn2)CC1` [Ex 107, 5-(3-methylpyridin-4-yl)-N-(1-(vinylsulfonyl)piperidin-4-yl)-2,6-naphthyridin-3-amine], the IC50 at CDK2/CCNE1 (setting [1]) is below 25 nM; on CDK1/CCNB1 (setting [2]), above 250 nM; on CDK4/CCND3 (setting [3]) it was 25 to 250 nM; on CDK6/CCND1 (setting [4]), 25 to 250 nM.

Take `O=C(ON1C(=O)CCC1=O)c1ccc(Nc2cc3c(C4=CCCCC4)nccc3cn2)cc1` [Ex 113, 2,5-dioxopyrrolidin-1-yl 4-((5-(cyclohex-1-en-1-yl)-2,6-naphthyridin-3-yl)amino)benzoate]: the IC50 was below 25 nM on CDK2/CCNE1 (setting [1]); below 25 nM at CDK1/CCNB1 (<25 nM, read-out: CDK1/CCNB IC50 <25 nM); 25 to 250 nM on CDK4/CCND3 (setting [3]); 25 to 250 nM at CDK6/CCND1 (setting [4]).

Regarding `Cc1c(-c2nccc3cnc(NC4CCN(S(C)(=O)=O)CC4)cc23)ccc2[nH]ncc12` [Ex 116, 5-(4-methyl-1H-indazol-5-yl)-N-(1-(methylsulfonyl)piperidin-4-yl)-2,6-naphthyridin-3-amine], the IC50 on CDK2/CCNE1 (setting [1]) was below 25 nM; at CDK1/CCNB1 (setting [6]) it was 25 to 250 nM; on CDK4/CCND3 (setting [7]), below 25 nM; on CDK6/CCND1 (setting [5]) it was below 25 nM.

In the case of `Cc1cc2[nH]ncc2cc1-c1nccc2cnc(NC3CCN(S(C)(=O)=O)CC3)cc12` [Ex 117, 5-(6-methyl-1H-indazol-5-yl)-N-(1-(methylsulfonyl)piperidin-4-yl)-2,6-naphthyridin-3-amine], the IC50 was below 25 nM on CDK2/CCNE1 (setting [1]), 25 to 250 nM at CDK1/CCNB1 (setting [6]), below 25 nM on CDK4/CCND3 (setting [7]) and below 25 nM on CDK6/CCND1 (setting [5]).

Take `C#Cc1nccc2cnc(Nc3ccc(S(C)(=O)=O)cc3)cc12` [Ex 124, 5-ethynyl-N-(4-(methylsulfonyl)phenyl)-2,6-naphthyridin-3-amine]: the IC50 on CDK2/CCNE1 (setting [8]) was 25 to 250 nM; on CDK1/CCNB1 (setting [2]), above 250 nM; on CDK4/CCND3 (setting [9]), above 250 nM; at CDK6/CCND1 (setting [10]) it was above 250 nM.

Regarding `CS(=O)(=O)c1ccc(Nc2cc3c(C4=CCCCC4)nccc3cn2)cc1` [Ex 127, 5-(cyclohex-1-en-1-yl)-N-(4-(methylsulfonyl)phenyl)-2,6-naphthyridin-3-amine], the IC50 was below 25 nM on CDK2/CCNE1 (setting [1]), 25 to 250 nM at CDK1/CCNB1 (setting [6]), below 25 nM at CDK4/CCND3 (setting [7]) and below 25 nM on CDK6/CCND1 (setting [5]).

For `CS(=O)(=O)c1ccc(Nc2cc3c(C#Cc4ccc(C#N)cc4)nccc3cn2)cc1` [Ex 129, 4-((7-((4-(methylsulfonyl)phenyl)amino)-2,6-naphthyridin-1-yl)ethynyl)benzonitrile], the IC50 at CDK2/CCNE1 (setting [8]) was 25 to 250 nM; on CDK1/CCNB1 (setting [2]), above 250 nM; at CDK4/CCND3 (setting [9]) it was above 250 nM; at CDK6/CCND1 (setting [10]), above 250 nM.

In the case of `CS(=O)(=O)c1ccc(Nc2cc3c(C#CCCO)nccc3cn2)cc1` [Ex 130, 4-(7-((4-(methylsulfonyl)phenyl)amino)-2,6-naphthyridin-1-yl)but-3-yn-1-ol], the IC50 on CDK2/CCNE1 (setting [1]) is below 25 nM; at CDK1/CCNB1 (setting [6]) it was 25 to 250 nM; on CDK4/CCND3 (setting [3]), 25 to 250 nM; on CDK6/CCND1 (setting [4]), 25 to 250 nM.
